Laboratory results as given in the supplement of paper PMC4862054.

Assays:
Assay in all cases: normalised response (% of control), CellTiter-Glo; higher = more viable cells (100 = DMSO, 0 = benzethonium chloride kill control)
Conditions in all cases: incubation time: 72 h
[1] = system: BT-474
Procedure, shortened: (§1)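 A 20 µl suspension of breast cancer cells was seeded into each well of 384-well plates containing compound at 5 concentrations in 10-fold steps over a compound-specific 10,000-fold range. After 72 h incubation, CellTox Green fluorescence (485/520 nm) was read first, and CellTiter-Glo luminescence was read after 10 min at room temperature. Each plate was normalised against 0.1 % DMSO (100) and a positive kill control (0), and each value is the normalised signal at one concentration.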

[2] = system: BT-549
Procedure, shortened: as §1

[3] = system: CAL-120
Procedure, shortened: as §1

[4] = system: CAL-148
Procedure, shortened: as §1

[5] = system: CAL-51
Procedure, shortened: as §1

[6] = system: CAL-85-1
Procedure, shortened: as §1

[7] = system: DU-4475
Procedure, shortened: as §1

[8] = system: HCC1143
Procedure, shortened: as §1

[9] = system: HCC1599
Procedure, shortened: as §1

[10] = system: HCC1937
Procedure, shortened: as §1

[11] = system: HDQ-P1
Procedure, shortened: as §1

[12] = system: Hs578T
Procedure, shortened: as §1

[13] = system: MCF-10A
Procedure, shortened: as §1

[14] = system: MDA-MB-231
Procedure, shortened: as §1

[15] = system: MDA-MB-436
Procedure, shortened: as §1

[16] = system: MDA-MB-453
Procedure, shortened: as §1

[17] = system: MDA-MB-468
Procedure, shortened: as §1

[18] = system: MFM-223
Procedure, shortened: as §1

[19] = system: SK-BR-3
Procedure, shortened: as §1

SMILES | normalised response [1] | normalised response [2] | normalised response [3] | normalised response [4] | normalised response [5] | normalised response [6] | normalised response [7] | normalised response [8] | normalised response [9] | normalised response [10] | normalised response [11] | normalised response [12] | normalised response [13] | normalised response [14] | normalised response [15] | normalised response [16] | normalised response [17] | normalised response [18] | normalised response [19]
Cn1cc(C2=Nc3cc(NC(=O)C(N)C4CCCCC4)cc4c3C2=CNNC4=O)cn1 (stereo unspecified) (1 nM) | 93.8% | 98.2% | 97.1% | 91.3% | 103% | 95.9% | 98.3% | 86.8% | 97.4% | 94.1% | 91.4% | 94% | 80% | 95% | 86.7% | 84.3% | 91.2% | 86.7% | 82.5%
Cn1cc(C2=Nc3cc(NC(=O)C(N)C4CCCCC4)cc4c3C2=CNNC4=O)cn1 (stereo unspecified) (10 nM) | 94% | 95.2% | 90.9% | 87.3% | 134% | 93.3% | 95.3% | 90.4% | 93.4% | 96.2% | 91.7% | 94.3% | 84.6% | 91.2% | 89.4% | 91.7% | 90.6% | 90.4% | 77.2%
COc1cc2c(cc1O)CC[C@@H]1[C@@H]2CC[C@]2(C)[C@@H](O)CC[C@@H]12 [2-methoxyestradiol] (10 nM) | 97.8% | 94% | 101% | 91.3% | 97.5% | 103% | 101% | 103% | 92.7% | 98.1% | 101% | 96.8% | 94.6% | 97.7% | 106% | 96.4% | 98.2% | 96.5% | 
Cc1sc2c(c1C)C(c1ccc(Cl)cc1)=N[C@@H](CC(=O)OC(C)(C)C)c1nnc(C)n1-2 [(+)JQ1] (10 nM) | 108% | 96.2% | 94.8% | 116% | 107% | 101% | 104% | 105% | 104% | 94.5% | 101% | 98.1% | 107% | 110% | 113% | 111% | 98.3% | 108% | 
CC1(C)CCC(CN2CCN(c3ccc(C(=O)NS(=O)(=O)c4ccc(NCC5CCOCC5)c([N+](=O)[O-])c4)c(Oc4cnc5[nH]ccc5c4)c3)CC2)=C(c2ccc(Cl)cc2)C1 [ABT-199] (1 nM) | 94.8% | 98.9% | 98.9% | 100% | 122% | 99.5% | 98.2% | 98.6% | 89.5% | 106% | 101% | 104% | 98.3% | 97.4% | 98.5% | 101% | 94.1% | 96.8% | 95.4%
CC1(C)CCC(CN2CCN(c3ccc(C(=O)NS(=O)(=O)c4ccc(NCC5CCOCC5)c([N+](=O)[O-])c4)c(Oc4cnc5[nH]ccc5c4)c3)CC2)=C(c2ccc(Cl)cc2)C1 [ABT-199] (10 nM) | 97.3% | 95.7% | 91.8% | 103% | 68.3% | 106% | 96.2% | 99.2% | 104% | 99.7% | 97.1% | 103% | 101% | 97.2% | 102% | 97.5% | 118% | 100% | 
Oc1ncnc2[nH]ncc12 [Allopurinol] (10 nM) | 102% | 101% | 99% | 107% | 98.1% | 98.6% | 106% | 103% | 104% | 99.2% | 99.5% | 97.5% | 107% | 99.6% | 96.5% | 109% | 99% | 108% | 106%
O=C1CN2Cc3c(ccc(Cl)c3Cl)N=C2N1 [Anagrelide] (10 nM) | 95.5% | 101% | 96.5% | 93.9% | 115% | 93.8% | 101% | 103% | 100% | 94.8% | 98.7% | 97.5% | 103% | 97% | 95.2% | 102% | 100% | 99.2% | 94.2%
Nc1ncn([C@@H]2O[C@H](CO)[C@@H](O)[C@H]2O)c(=O)n1 [Azacitidine] (10 nM) | 99.9% | 93.4% | 99.3% | 92% | 113% | 101% | 102% | 99.4% | 105% | 101% | 99.5% | 97.5% | 103% | 94.3% | 105% | 105% | 103% | 96.2% | 110%
O=NN(CCCl)C(=O)NCCCl [Carmustine] (10 nM) | 93.8% | 100% | 98.9% | 93.3% | 128% | 95.6% | 101% | 105% | 97.9% | 101% | 94.8% | 105% | 96.6% | 91.9% | 98.4% | 114% | 102% | 102% | 
